#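 48-hour exposure; five concentrations; linearly interpolated endpoints. Abbreviation: GI50, concentration required for 50% inhibition of growth.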 Active and inactive are the calls of the source. No stated cut-off is given here; in the data, active = GI50 up to about 1.1 µM and inactive = higher.
# Tests used:
# Experiment in all cases: NCI-60 cell line screen, 48 h
# A498 = test system: A498
# A549 = test system: A549
# CCRF-CEM = test system: CCRF-CEM
# HCT-116 = test system: HCT-116
# HCT-15 = test system: HCT-15
# Hs-578T = test system: Hs-578T
# K562 = test system: K562
# MDA-MB-231 = test system: MDA-MB-231
# Malme-3M = test system: Malme-3M
# NCI-H460 = test system: NCI-H460
# NCI-H522 = test system: NCI-H522
# NCI/ADR-RES = test system: NCI/ADR-RES
# OVCAR-3 = test system: OVCAR-3
# OVCAR-8 = test system: OVCAR-8
# PC-3 = test system: PC-3
# RPMI-8226 = test system: RPMI-8226
# SK-MEL-2 = test system: SK-MEL-2
# T47D = test system: T47D
# U-251 = test system: U-251
# DLD-1 = test system: DLD-1
SMILES,GI50 (A498),GI50 (A549),GI50 (CCRF-CEM),GI50 (HCT-116),GI50 (HCT-15) [µM],GI50 (Hs-578T),GI50 (K562),GI50 (MDA-MB-231),GI50 (Malme-3M),GI50 (NCI-H460),GI50 (NCI-H522),GI50 (NCI/ADR-RES),GI50 (OVCAR-3),GI50 (OVCAR-8),GI50 (PC-3),GI50 (RPMI-8226),GI50 (SK-MEL-2),GI50 (T47D),GI50 (U-251),GI50 (DLD-1)
O=C1/C(=C/c2ccc(O)cc2)CCCC1CN1CCCCC1 (stereo unspecified),6.84 µM (inactive),17.2 µM (inactive),2.57 µM (inactive),1.79 µM (inactive),1.32,3.71 µM (inactive),1.42 µM (inactive),2.27 µM (inactive),1.88 µM (inactive),14.3 µM (inactive),1.25 µM (inactive),8.2 µM (inactive),4.41 µM (inactive),5.92 µM (inactive),5.38 µM (inactive),1.32 µM (inactive),11.2 µM (inactive),2.32 µM (inactive),7.91 µM (inactive),–
C[N+](C)(C)CC1CCCCCCCCCCC1=O (stereo unspecified),> 100 µM (inactive),> 100 µM (inactive),> 100 µM (inactive),> 100 µM (inactive),> 100,> 100 µM (inactive),> 100 µM (inactive),> 100 µM (inactive),> 100 µM (inactive),> 100 µM (inactive),> 100 µM (inactive),> 100 µM (inactive),> 100 µM (inactive),> 100 µM (inactive),> 100 µM (inactive),> 100 µM (inactive),> 100 µM (inactive),> 100 µM (inactive),> 100 µM (inactive),–
COc1ccccc1OCC(=N/NC(=O)c1ccncc1)/N=C/c1ccncc1,> 100 µM (inactive),> 100 µM (inactive),> 100 µM (inactive),> 100 µM (inactive),> 100,> 100 µM (inactive),> 100 µM (inactive),> 100 µM (inactive),> 100 µM (inactive),> 100 µM (inactive),> 100 µM (inactive),> 100 µM (inactive),> 100 µM (inactive),> 100 µM (inactive),> 100 µM (inactive),> 100 µM (inactive),> 100 µM (inactive),> 100 µM (inactive),> 100 µM (inactive),–
CN(C)CCNCCCNc1c2ccccc2nc2cccc([N+](=O)[O-])c12,0.021 µM (active),< 0.017 µM (active),< 0.0121 µM (active),< 0.0161 µM (active),0.0826,< 0.0386 µM (active),< 0.0119 µM (active),< 0.0129 µM (active),0.0461 µM (active),< 0.0121 µM (active),< 0.01 µM (active),0.91 µM (active),< 0.0157 µM (active),< 0.0146 µM (active),< 0.0171 µM (active),< 0.0138 µM (active),0.0197 µM (active),0.0387 µM (active),< 0.0175 µM (active),–
[O-][S+]1Cc2ccccc2CS1 (stereo unspecified),76.6 µM (inactive),93.8 µM (inactive),–,20.5 µM (inactive),34.9,–,17.9 µM (inactive),–,13.6 µM (inactive),22.7 µM (inactive),6.81 µM (inactive),–,15.1 µM (inactive),15 µM (inactive),–,13.9 µM (inactive),–,–,10.7 µM (inactive),16.7 µM (inactive)
C/N=C(N)/N=C(\N)Nc1cc2ccccc2c2ccccc12,11.2 µM (inactive),14.2 µM (inactive),7.74 µM (inactive),12.9 µM (inactive),16.7,16.9 µM (inactive),19.1 µM (inactive),13.3 µM (inactive),15 µM (inactive),11.1 µM (inactive),13.1 µM (inactive),20.6 µM (inactive),16.7 µM (inactive),16.8 µM (inactive),15.8 µM (inactive),15.5 µM (inactive),18 µM (inactive),14.8 µM (inactive),15.2 µM (inactive),–
CC(=O)OCCOCNC(=S)N/N=C(\C)c1ccco1,> 100 µM (inactive),> 100 µM (inactive),> 100 µM (inactive),> 100 µM (inactive),> 100,–,> 100 µM (inactive),–,> 100 µM (inactive),> 100 µM (inactive),> 100 µM (inactive),–,> 100 µM (inactive),> 100 µM (inactive),–,–,> 100 µM (inactive),–,> 100 µM (inactive),> 100 µM (inactive)
CC(=O)OC[C@@]1(C)[C@@H]2[C@@H]3[C@@]4(CO[C@]3(C)C(=O)[C@@]3(OC(C)=O)C[C@H](C)[C@H](OC(C)=O)[C@@H]3[C@H]4OC(C)=O)[C@H](OC(=O)c3ccccc3)C[C@@H]21,> 100 µM (inactive),74.1 µM (inactive),32.8 µM (inactive),67.9 µM (inactive),> 100,> 100 µM (inactive),24 µM (inactive),> 100 µM (inactive),> 100 µM (inactive),59 µM (inactive),> 100 µM (inactive),> 100 µM (inactive),> 100 µM (inactive),> 100 µM (inactive),45.6 µM (inactive),19 µM (inactive),> 100 µM (inactive),66.2 µM (inactive),> 100 µM (inactive),–

# Source: ChEMBL document CHEMBL1201862, “PubChem BioAssay data set” (2004)
